# Assay results reported in US20150105252A1, “SUBSTITUTED PYRAZOLES AS HERBICIDES” (E I DU PONT DE NEMOURS AND COMPANY, priority 2013, published 2015).
# Key:
# pigweed [1] = experiment: Test A preemergence; assay type: in vivo, Amaranthus retroflexus; conditions: preemergence
# In short: (§1)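 Visual injury ratings, 0 = no effect to 100 = complete control, taken about 10 days after treatment against untreated controls. Test chemicals, in a non-phytotoxic surfactant-containing solvent, were sprayed onto soil preemergence or onto one- to two-leaf plants (2–10 cm) postemergence, in loam–sand soil under greenhouse conditions.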
# morningglory = experiment: Test A postemergence; assay type: in vivo, Ipomoea spp.
# In short: as §1
# pigweed [2] = experiment: Test A postemergence; assay type: in vivo, Amaranthus retroflexus
# In short: as §1
# wheat [3] = experiment: Test A postemergence; assay type: in vivo, Triticum aestivum
# In short: as §1
# barnyardgrass = experiment: Test B flood; assay type: in vivo, Echinochloa crus-galli; conditions: 250 g ai/ha, visual rating on 0 to 100 scale (0 no effect, 100 complete control), 13 to 15 days
# In short: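 Two-leaf-stage plants, pots flooded (3 cm above soil) and treated through the water, which stayed at that depth. After 13–15 days in greenhouse conditions, visual assessment versus controls: 0 is no effect, 100 complete control, dash means no result.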
# blackgrass = experiment: Test C preemergence; assay type: in vivo, Alopecurus myosuroides; conditions: for Blackgrass plant response rating / Plant response rating, Blackgrass: preemergence; for Plant response rating, Blackgrass: 125 g ai/ha, scale 0 to 100, 0 = no effect, 100 = complete control
# In short: (§2)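 In this greenhouse assay, seeded soil (loam plus sand) or emerged seedlings in peat-vermiculite medium were treated with formulated compound. Roughly two weeks later (13–15 days), each species was scored visually relative to controls, from 0 for no effect to 100 for complete control.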
# ryegrass, Italian = experiment: Test C preemergence; assay type: in vivo, Lolium multiflorum; conditions: for Ryegrass, Italian plant response rating / Plant response rating, Ryegrass, Italian: preemergence; for Plant response rating, Ryegrass, Italian: 125 g ai/ha, scale 0 to 100, 0 = no effect, 100 = complete control
# In short: as §2
# crabgrass, large = experiment: Test C preemergence; assay type: in vivo, Digitaria sanguinalis; conditions: for Crabgrass, Large plant response rating / Plant response rating, Crabgrass, Large: preemergence; for Plant response rating, Crabgrass, Large: 125 g ai/ha, scale 0 to 100, 0 = no effect, 100 = complete control
# In short: as §2
# foxtail, giant = experiment: Test C preemergence; assay type: in vivo, Setaria faberii; conditions: for Foxtail, Giant plant response rating / Plant response rating, Foxtail, Giant: preemergence; for Plant response rating, Foxtail, Giant: 125 g ai/ha, scale 0 to 100, 0 = no effect, 100 = complete control
# In short: as §2
# oilseed rape = experiment: Test C preemergence; assay type: in vivo, Brassica napus; conditions: for Oilseed Rape plant response rating / Plant response rating, Oilseed Rape: preemergence; for Plant response rating, Oilseed Rape: 125 g ai/ha, scale 0 to 100, 0 = no effect, 100 = complete control
# In short: as §2
# wheat [4] = experiment: Test C postemergence; assay type: in vivo, Triticum aestivum; conditions: for Plant response rating (scale of 0 to 100 where 0 is no effect and 100 is complete control), Wheat: Postemergence, 31 g ai/ha, visually evaluated after 13 to 15 days; for Wheat plant response rating / Plant response rating, Wheat: postemergence; for Wheat plant response rating: scale 0 to 100
# In short: as §2
# galium = experiment: Test C postemergence; assay type: in vivo, Galium aparine; conditions: for Plant response rating (scale of 0 to 100 where 0 is no effect and 100 is complete control), Galium: Postemergence, 31 g ai/ha, visually evaluated after 13 to 15 days; for Galium plant response rating / Plant response rating, Galium: postemergence; for Galium plant response rating: 62 g ai/ha, scale 0 to 100
# In short: as §2
# corn = experiment: Test C postemergence; assay type: in vivo, Zea mays; conditions: for Plant response rating (scale of 0 to 100 where 0 is no effect and 100 is complete control), Corn: Postemergence, 31 g ai/ha, visually evaluated after 13 to 15 days; for Corn plant response rating / Plant response rating, Corn: postemergence; for Corn plant response rating: 62 g ai/ha, scale 0 to 100
# In short: as §2
# [5] = 500 g ai/ha, visual injury after approx. 10 days, 0 to 100 scale (0 no effect, 100 complete control)
# [6] = Postemergence, 500 g ai/ha, 0 to 100 scale (0 no effect, 100 complete control)
# [7] = postemergence, 125 g ai/ha, about 10 days, visual rating on 0 to 100 scale (0 no effect, 100 complete control)
# [8] = 31 g ai/ha, visual rating, scale 0 to 100 (0 no effect, 100 complete control), 13 to 15 days
# [9] = 62 g ai/ha, scale 0 to 100 (0 no effect, 100 complete control), 13 to 15 days
# [10] = 250 g ai/ha, scale 0 to 100 (0 no effect, 100 complete control)
# [11] = 125 g ai/ha, scale 0 to 100, 0 no effect, 100 complete control
# [12] = 250 g ai/ha, scale 0 to 100, 0 is no effect, 100 is complete control
smiles,measurement,setting,value
CCONC(=O)c1cc(CC)n(Cc2ccnc(OC(F)F)c2)n1 [Compound 131],Pigweed plant response rating,"pigweed [1]; 125 g ai/ha, visual injury, 0 to 100 scale, approx. 10 days",100
same,Pigweed plant response rating,pigweed [1]; [5],100
same,Morningglory plant response rating,morningglory; [6],100
same,Morningglory plant response rating,morningglory; [7],90
same,Pigweed plant response rating,pigweed [2]; [6],100
same,Pigweed plant response rating,pigweed [2]; [7],100
same,Wheat plant response rating,wheat [3]; [6],90
same,Wheat plant response rating,wheat [3]; [7],80
same,"Plant response rating, Barnyardgrass",barnyardgrass,50
same,"Plant response rating (scale of 0 to 100), Blackgrass","blackgrass; Preemergence, 250 g ai/ha",98
same,Blackgrass plant response rating,blackgrass; [8],40
same,Blackgrass plant response rating,blackgrass; [9],80
same,"Plant response rating, Blackgrass",blackgrass; 13 to 15 days,95
same,"Plant response rating (scale of 0 to 100), Ryegrass, Italian","ryegrass, Italian; Preemergence, 250 g ai/ha",95
same,"Ryegrass, Italian plant response rating","ryegrass, Italian; [8]",15
same,"Ryegrass, Italian plant response rating","ryegrass, Italian; [9]",55
same,"Plant response rating, Ryegrass, Italian","ryegrass, Italian; 13 to 15 days",85
same,"Plant response rating (scale of 0 to 100), Crabgrass, Large","crabgrass, large; Preemergence, 250 g ai/ha",100
same,"Crabgrass, Large plant response rating","crabgrass, large; [8]",90
same,"Crabgrass, Large plant response rating","crabgrass, large; [9]",100
same,"Plant response rating, Crabgrass, Large","crabgrass, large; 13 to 15 days",100
same,"Plant response rating (scale of 0 to 100), Foxtail, Giant","foxtail, giant; Preemergence, 250 g ai/ha",100
same,"Foxtail, Giant plant response rating","foxtail, giant; [8]",85
same,"Foxtail, Giant plant response rating","foxtail, giant; [9]",100
same,"Plant response rating, Foxtail, Giant","foxtail, giant; 13 to 15 days",100
same,"Plant response rating (scale of 0 to 100), Oilseed Rape","oilseed rape; Preemergence, 250 g ai/ha",100
same,Oilseed Rape plant response rating,oilseed rape; [8],95
same,Oilseed Rape plant response rating,oilseed rape; [9],100
same,"Plant response rating, Oilseed Rape",oilseed rape; 13 to 15 days,98
same,"Plant response rating (scale of 0 to 100 where 0 is no effect and 100 is complete control), Wheat",wheat [4],5
same,Wheat plant response rating,wheat [4]; 62 g ai/ha,5
same,"Plant response rating, Wheat",wheat [4]; [10],10
same,"Plant response rating, Wheat",wheat [4]; [11],10
same,"Plant response rating (scale of 0 to 100 where 0 is no effect and 100 is complete control), Galium",galium,45
same,Galium plant response rating,galium,55
same,"Plant response rating, Galium",galium; [10],70
same,"Plant response rating, Galium",galium; [11],50
same,"Plant response rating (scale of 0 to 100 where 0 is no effect and 100 is complete control), Corn",corn,5
same,Corn plant response rating,corn,5
same,"Plant response rating, Corn",corn; [10],50
same,"Plant response rating, Corn",corn; [11],5
O=C(NC1CC1)c1cc(CCCl)n(Cc2ccnc(C(F)(F)F)c2)n1 [Compound 144],Pigweed plant response rating (0 to 100 scale),"pigweed [1]; 125 g ai/ha, visual injury approx. 10 days after treatment",100
same,Pigweed plant response rating,pigweed [1]; [5],100
same,Morningglory plant response rating,morningglory; [6],90
same,Morningglory plant response rating,morningglory; [7],80
same,Pigweed plant response rating,pigweed [2]; [6],100
same,Pigweed plant response rating,pigweed [2]; [7],100
same,Wheat plant response rating,wheat [3]; [6],90
same,Wheat plant response rating,wheat [3]; [7],50
same,"Plant response rating, Barnyardgrass",barnyardgrass,30
same,Blackgrass plant response rating,blackgrass; [8],40
same,Blackgrass plant response rating,blackgrass; [9],40
same,"Plant response rating, Blackgrass",blackgrass; 13 to 15 days,90
same,Blackgrass plant response rating,blackgrass; [12],90
same,"Ryegrass, Italian plant response rating","ryegrass, Italian; [8]",5
same,"Ryegrass, Italian plant response rating","ryegrass, Italian; [9]",30
same,"Plant response rating, Ryegrass, Italian","ryegrass, Italian; 13 to 15 days",85
same,"Ryegrass, Italian plant response rating","ryegrass, Italian; [12]",90
same,"Crabgrass, Large plant response rating","crabgrass, large; [8]",100
same,"Crabgrass, Large plant response rating","crabgrass, large; [9]",100
same,"Plant response rating, Crabgrass, Large","crabgrass, large; 13 to 15 days",100
same,"Crabgrass, Large plant response rating","crabgrass, large; [12]",100
same,"Foxtail, Giant plant response rating","foxtail, giant; [8]",75
same,"Foxtail, Giant plant response rating","foxtail, giant; [9]",100
same,"Plant response rating, Foxtail, Giant","foxtail, giant; 13 to 15 days",100
same,"Foxtail, Giant plant response rating","foxtail, giant; [12]",100
same,Oilseed Rape plant response rating,oilseed rape; [8],80
same,Oilseed Rape plant response rating,oilseed rape; [9],95
same,"Plant response rating, Oilseed Rape",oilseed rape; 13 to 15 days,100
same,Oilseed Rape plant response rating,oilseed rape; [12],100
same,"Plant response rating (scale of 0 to 100 where 0 is no effect and 100 is complete control), Wheat",wheat [4],5
same,"Plant response rating, Wheat",wheat [4]; [10],10
same,Wheat plant response rating,wheat [4],10
same,"Plant response rating (scale of 0 to 100 where 0 is no effect and 100 is complete control), Galium",galium,40
same,Galium plant response rating,galium,55
same,"Plant response rating, Galium",galium; [10],85
same,"Plant response rating, Galium",galium; [11],70
same,"Plant response rating (scale of 0 to 100 where 0 is no effect and 100 is complete control), Corn",corn,5
same,Corn plant response rating,corn,10
same,"Plant response rating, Corn",corn; [10],25
same,"Plant response rating, Corn",corn; [11],15
